Results from ChEMBL document CHEMBL5584239, “Discovery of novel quinoline scaffold selective estrogen receptor degraders (SERDs) for treatment of ER positive breast cancer with enhanced antiproliferative bioactivity through immunogenic cell death (ICD) effects” (Eur J Med Chem, 2024).
Blank lines part the entries; values can stand above or below the compound they belong to. The source made the active and inactive calls. The calls are words filed in the database; no cut-off is given here.

Columns and labels:
MCF7 [1] = assay: Antiproliferative activity against human MCF7 cells incubated for 5 days by MTT assay; assay type: functional, cell-based; settings: MCF7, 120 h
Ishikawa = assay: Antiproliferative activity against human Ishikawa cells at 20 uM incubated for 3 days by MTT assay relative to control; assay type: functional; settings: 72 h, time 3 day
[2] = target: T1, Estrogen receptor (Homo sapiens) (UniProt P03372); assay: Induction of estrogen receptor degradation in estradiol-stimulated human MCF7 cells assessed as decrease in GREB1 mRNA level incubated for 24 hrs by RT-qPCR analysis; assay type: cell-based; settings: dose 1-10 µM
T1 sequence (whole entry): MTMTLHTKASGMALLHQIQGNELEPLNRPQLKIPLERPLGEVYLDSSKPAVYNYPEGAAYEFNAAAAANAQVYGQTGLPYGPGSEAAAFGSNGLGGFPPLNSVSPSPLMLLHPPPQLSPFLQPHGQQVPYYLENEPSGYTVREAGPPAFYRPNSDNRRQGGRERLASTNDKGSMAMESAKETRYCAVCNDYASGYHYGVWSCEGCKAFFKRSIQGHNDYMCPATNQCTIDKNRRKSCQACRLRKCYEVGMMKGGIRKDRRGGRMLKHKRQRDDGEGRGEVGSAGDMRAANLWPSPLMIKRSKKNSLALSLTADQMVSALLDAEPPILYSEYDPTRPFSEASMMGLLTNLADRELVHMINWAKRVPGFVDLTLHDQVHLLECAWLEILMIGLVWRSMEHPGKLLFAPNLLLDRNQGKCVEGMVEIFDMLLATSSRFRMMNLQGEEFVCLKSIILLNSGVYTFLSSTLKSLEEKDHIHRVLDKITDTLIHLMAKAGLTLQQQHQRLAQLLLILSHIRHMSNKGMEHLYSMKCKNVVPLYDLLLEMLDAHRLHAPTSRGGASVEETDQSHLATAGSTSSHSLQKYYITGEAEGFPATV

[3] = target: T1, Estrogen receptor (Homo sapiens); assay: Induction of estrogen receptor degradation in estradiol-stimulated human MCF7 cells assessed as decrease in TFF1 mRNA level incubated for 24 hrs by RT-qPCR analysis; assay type: cell-based; settings: dose 1-10 µM
[4] = target: T1, Estrogen receptor (Homo sapiens); assay: Induction of estrogen receptor degradation in estradiol-stimulated human MCF7 cells assessed as decrease in PGR mRNA level incubated for 24 hrs by RT-qPCR analysis; assay type: cell-based; settings: dose 1-10 µM
MCF7 [5] = assay: Induction of immunogenic cell death in human MCF7 cells assessed as CRT translocation at 10 uM by Western blot analysis; assay type: functional, cell-based
MCF7 [6] = assay: Induction of endoplasmic reticulum stress effect in human MCF7 cells assessed as change in CHOP level at 10 uM incubated for 24 hrs by immunofluorescence based analysis; assay type: functional, cell-based
MCF7 [7] = assay: Antitumor activity against human MCF7 cells xenografted in nude mouse model at 60 mg/kg, po administered daily via gavage for 30 days in presence of ribociclib; assay type: functional, organism-based; settings: time 30.0 day
Uterus = assay: Effect on immature Sprague-Dawley rat uterus assessed as reduction in uterine wet weight at 60 mg/kg, po qd for 2 days by H and E staining based analysis; assay type: functional, organism-based; settings: time 2.0 day
MCF7 [8] = assay: Antitumor activity against human MCF7 cells xenografted in nude mouse model assessed as reduction in Ki67 level at 60 mg/kg, po administered daily via gavage for 30 days in presence of ribociclib by IHC analysis; assay type: functional, organism-based; settings: time 30.0 day
MCF7 [9] = assay: Induction of endoplasmic reticulum stress effect in human MCF7 cells assessed as change in calnexin level at 10 uM incubated for 3 to 24 hrs by Western blot analysis; assay type: functional, cell-based; settings: time 3-24 hrs
MCF7 [10] = assay: Induction of endoplasmic reticulum stress effect in human MCF7 cells assessed as change in pEIF-2alpha level at 10 uM incubated for 3 to 24 hrs by Western blot analysis; assay type: functional, cell-based; settings: time 3-24 hrs
MCF7 [11] = assay: Induction of immunogenic cell death in human MCF7 cells assessed as ATP release […] at 10 uM; assay type: functional, cell-based
[12] = Toxicity in nude mouse model xenografted with human MCF7 cells assessed as morphological change in kidney at 60 mg/kg, po administered daily via gavage for 30 days by H and E staining based analysis; assay type: organism-based; settings: in vivo, 720 h, time 30 day
MCF7 [13] = assay: Induction of endoplasmic reticulum stress effect in human MCF7 cells assessed as change in ATF4 level at 10 uM incubated for 3 to 24 hrs by Western blot analysis; assay type: functional, cell-based; settings: time 3-24 hrs
MCF7 [14] = assay: Induction of endoplasmic reticulum stress effect in human MCF7 cells assessed as change in calnexin level at 10 uM incubated for 24 hrs by immunofluorescence based analysis; assay type: functional, cell-based
[15] = target: T1, Estrogen receptor (Homo sapiens); assay: Induction of estrogen receptor degradation in human MCF7 cells at 10 uM by fluorescence microscopy; assay type: cell-based
MCF7 [16] = assay: Induction of ROS production in human MCF7 cells measured after 6 to 24 hrs by flow cytometry; assay type: functional, cell-based; settings: time 6-24 hrs
[17] = Toxicity in nude mouse model xenografted with human MCF7 cells assessed as morphological change in liver at 60 mg/kg, po administered daily via gavage for 30 days by H and E staining based analysis; assay type: organism-based; settings: in vivo, 720 h, time 30 day
[18] = Toxicity in nude mouse model xenografted with human MCF7 cells assessed as morphological change in heart at 60 mg/kg, po administered daily via gavage for 30 days by H and E staining based analysis; assay type: organism-based; settings: in vivo, 720 h, time 30 day
MCF7 [19] = assay: Induction of immunogenic cell death in human MCF7 cells assessed as HSP90 exposure at 10 uM by Western blot analysis; assay type: functional, cell-based
MCF7 [20] = assay: Antitumor activity against human MCF7 cells xenografted in nude mouse model assessed as reduction in PR level at 60 mg/kg, po administered daily via gavage for 30 days in presence of ribociclib by IHC analysis; assay type: functional, organism-based; settings: time 30.0 day
[21] = target: T1, Estrogen receptor (Homo sapiens); assay: Induction of estrogen receptor degradation in human MCF7 cells expressing ERE-luciferase at 10 uM incubated for 24 hrs by luminescence based analysis; assay type: cell-based
MCF7 [22] = assay: Induction of immunogenic cell death in human MCF7 cells assessed as HMGB1 release from nucleus at 10 uM by Western blot analysis; assay type: functional, cell-based
MCF7 [23] = assay: Induction of endoplasmic reticulum stress effect in human MCF7 cells assessed as change in EIF-2alpha level at 10 uM incubated for 3 to 24 hrs by Western blot analysis; assay type: functional, cell-based; settings: time 3-24 hrs
MCF7 [24] = assay: Synergistic antiproliferative activity against human MCF7 cells at 0.1 to 10000 nM incubated for 5 days in presence of Ribociclib by MTT assay; assay type: functional, cell-based; settings: dose 0.1-10000 nM, time 5.0 day
[25] = target: T1, Estrogen receptor (Homo sapiens); assay: Induction of estrogen receptor degradation in human MCF7 cells incubated for 24 hrs by Western blot analysis; assay type: cell-based; settings: dose 0.001-10 µM
MCF7 [26] = assay: Induction of endoplasmic reticulum stress effect in human MCF7 cells assessed as change in CHOP level at 10 uM incubated for 3 to 24 hrs by Western blot analysis; assay type: functional, cell-based; settings: time 3-24 hrs
[27] = target: T1, Estrogen receptor (Homo sapiens); assay: Induction of estrogen receptor degradation in MG-132-treated human MCF7 cells at 10 uM incubated for 4 to 6 hrs by Western blot analysis; assay type: cell-based; settings: time 4-6 hrs
MCF7 [28] = assay: Induction of immunogenic cell death in human MCF7 cells assessed as HMGB1 release from nucleus at 10 uM by FITC staining based flow cytometry; assay type: functional
[29] = Toxicity in nude mouse model xenografted with human MCF7 cells assessed as body weight loss at 60 mg/kg, po administered daily via gavage for 30 days; assay type: organism-based; settings: in vivo, 720 h, time 30 day
[30] = Toxicity in nude mouse model xenografted with human MCF7 cells assessed as morphological change in spleen at 60 mg/kg, po administered daily via gavage for 30 days by H and E staining based analysis; assay type: organism-based; settings: in vivo, 720 h, time 30 day
MCF7 [31] = assay: Induction of ROS production in human MCF7 cells incubated for 3 to 24 hrs by immunofluorescence analysis; assay type: functional, cell-based; settings: time 3-24 hrs
MCF7 [32] = assay: Induction of cell cycle arrest at G0/G1 phase in human MCF7 cells at 10 uM incubated for 24 hrs by PI/RNase staining based flow cytometry (reference value: 53.5 +/- 1.96 %); assay type: functional
MCF7 [33] = assay: Induction of immunogenic cell death in human MCF7 cells assessed as CRT translocation at 10 uM by FITC staining based flow cytometry; assay type: functional
MCF7 [34] = assay: Induction of endoplasmic reticulum stress effect in human MCF7 cells assessed as change in GRP78 level at 10 uM incubated for 3 to 24 hrs by Western blot analysis; assay type: functional, cell-based; settings: time 3-24 hrs
MCF7 [35] = assay: Antitumor activity against human MCF7 cells xenografted in nude mouse model assessed as tumor growth inhibition at 60 mg/kg, po administered daily via gavage for 30 days; assay type: functional, organism-based; settings: time 30.0 day
MCF7 [36] = assay: Induction of immunogenic cell death in human MCF7 cells assessed as HMGB1 release from nucleus at 10 uM by fluorescence microscopy; assay type: functional, cell-based
MCF7 [37] = assay: Antitumor activity against human MCF7 cells xenografted in nude mouse model assessed as reduction in ER level at 60 mg/kg, po administered daily via gavage for 30 days in presence of ribociclib by IHC analysis; assay type: functional, organism-based; settings: time 30.0 day
MCF7 [38] = assay: Induction of immunogenic cell death in human MCF7 cells assessed as CRT translocation at 10 uM by fluorescence microscopy; assay type: functional, cell-based

Compound: CCc1ccccc1C(=O)c1cnc2cc(O)ccc2c1Oc1ccc(/C=C/C(=O)O)cc1OC
IC50 (MCF7 [1]): 14000 nM
inhibition at 20 µM (Ishikawa): 5.03%

Compound: O=C(O)/C=C/c1ccc(Oc2c(C(=O)c3ccc(F)cc3)cnc3cc(O)ccc23)cc1
IC50 (MCF7 [1]): 4870 nM
inhibition at 20 µM (Ishikawa): 12.5%

Compound: Cc1cc(C)cc(C(=O)c2cnc3cc(O)ccc3c2Oc2ccc(/C=C/C(=O)O)cc2)c1
IC50 (MCF7 [1]): 4800 nM
inhibition at 20 µM (Ishikawa): 30.9%

Compound: CCc1ccccc1C(=O)c1cnc2cc(O)ccc2c1Oc1ccc(/C=C/C(=O)O)c(C)c1
IC50 (MCF7 [1]): 3570 nM
inhibition at 20 µM (Ishikawa): 13.4%

Compound: C[C@]12CC[C@@H]3c4ccc(O)cc4CC[C@H]3[C@@H]1CC[C@@H]2O
Activity (MCF7 [31]): inactive

Compound: O=C(O)/C=C/c1ccc(Oc2c(C(=O)c3cccs3)cnc3cc(O)ccc23)cc1
IC50 (MCF7 [1]): 7170 nM
inhibition at 20 µM (Ishikawa): 10.4%

More lines, main results first:

Activity [2]: Dose-Dependent Effect
Activity [3]: Dose-Dependent Effect
IC50 (MCF7 [1]): 450 nM
Activity [4]: Dose-Dependent Effect
Compound: CCc1ccccc1C(=O)c1cnc2cc(O)ccc2c1Oc1ccc(/C=C/C(=O)O)cc1C
inhibition at 20 µM (Ishikawa): -6.14%

IC50 (MCF7 [1]): 930 nM
Compound: Cc1cccc(C)c1C(=O)c1cnc2cc(O)ccc2c1Oc1ccc(/C=C/C(=O)O)cc1
inhibition at 20 µM (Ishikawa): 23.1%

IC50 (MCF7 [1]): 590 nM
Compound: CCc1ccccc1C(=O)c1cnc2cc(O)ccc2c1Oc1cc(C)c(/C=C/C(=O)O)c(C)c1
inhibition at 20 µM (Ishikawa): 17.3%

IC50 (MCF7 [1]): 420 nM
Compound: Cc1cc(F)ccc1C(=O)c1cnc2cc(O)ccc2c1Oc1ccc(/C=C/C(=O)O)cc1
inhibition at 20 µM (Ishikawa): 15.1%

Activity [2]: Dose-Dependent Effect
Activity [3]: Dose-Dependent Effect
IC50 (MCF7 [1]): 510 nM
Activity [15]: Active
Activity [21]: Active
Activity [25]: Dose-Dependent Effect
Activity [27]: inactive
Activity [4]: Dose-Dependent Effect
Compound: CCc1cc(/C=C/C(=O)O)ccc1Oc1c(C(=O)c2ccccc2CC)cnc2cc(O)ccc12
Activity (MCF7 [5]): Active
Activity (MCF7 [6]): Active
Activity (MCF7 [7]): Active
Activity (Uterus): inactive
Activity (MCF7 [8]): Active
Activity (MCF7 [9]): Active
Activity (MCF7 [10]): Active
Activity (MCF7 [11]): Active
Activity [12]: Non-Toxic
Activity (MCF7 [13]): Active
Activity (MCF7 [14]): Active
Activity (MCF7 [16]): inactive
Activity [17]: Non-Toxic
Activity [18]: Non-Toxic
Activity (MCF7 [19]): Active
Activity (MCF7 [20]): Active
Activity (MCF7 [22]): Active
Activity (MCF7 [23]): Active
Activity (MCF7 [24]): Active
Activity (MCF7 [26]): Active
Activity (MCF7 [28]): Active
Activity [29]: Non-Toxic
Activity [30]: Non-Toxic
Activity (MCF7 [31]): inactive
Activity (MCF7 [32]): 64%
Activity (MCF7 [33]): Active
Activity (MCF7 [34]): Active
inhibition (MCF7 [35]): Active
Activity (MCF7 [36]): Active
Activity (MCF7 [37]): Active
inhibition at 20 µM (Ishikawa): 13.2%
Activity (MCF7 [38]): Active

IC50 (MCF7 [1]): 370 nM
Compound: O=C(O)/C=C/c1ccc(Oc2c(C(=O)c3ccccc3C(F)(F)F)cnc3cc(O)ccc23)cc1
inhibition at 20 µM (Ishikawa): 27.5%

IC50 (MCF7 [1]): 450 nM
Compound: Cc1ccc(C(=O)c2cnc3cc(O)ccc3c2Oc2ccc(/C=C/C(=O)O)cc2)c(C)c1
inhibition at 20 µM (Ishikawa): -0.04%
